Structures are written as SMILES. Read-outs that look alike come from different tables or passages of the source.

For assay [1], the target named is c-KIT kinase (uKIT) (Homo sapiens (Human), UniProt P10721). The experiment in a line: Biochemical Assay for uKIT (coupled pyruvate kinase/lactate dehydrogenase assay). The following applies: Inhibition of biochemical activity of uKIT kinase; 1 mM ATP. Here is the method:
Biochemical Assay for uKIT
Activity of c-KIT kinase (SEQ. ID NO. 1 or SEQ. ID NO. 2) was determined spectroscopically using a coupled pyruvate kinase/lactate dehydrogenase assay that continuously monitors the ATP hydrolysis-dependent oxidation of NADH (e.g., Schindler et al. Science (2000) 289: 1938-1942). Assays were conducted in 384-well plates (100 μL final volume) using 16 nM (Decode, SEQ ID No. 1) or 4.36 nM (Signal Chem, SEQ. ID No. 2), 0.7 mg/mL PE4Y substrate, 1.5 units pyruvate kinase, 2.1 units lactate dehydrogenase, 1 mM phosphoenol pyruvate, 0.28 mM NADH and 1 mM ATP in assay buffer (100 mM Tris, pH 7.5, 15 mM MgCl2, 0.5 mM DTT, 0.1% octyl-glucoside, 0.002% (w/v) BSA, and 0.002% Triton X-100). Inhibition of KIT was measured by adding serial diluted test compound (final assay concentration of 1% DMSO). A decrease in absorption at 340 nm was monitored continuously for 6 h at 30° C. on a multi-mode microplate reader (BioTek). The reaction rate was calculated using the 2-3 h time frame. The reaction rate at each concentration of compound was converted to percent inhibition using controls (i.e., reaction with no test compound and reaction with a known inhibitor) and IC50 values were calculated using software routines in Prism (GraphPad software).

Assay [2] concerns Ba/F3 KIT mutant cells. The experiment in a line: Ba/F3 mutant KIT Cell Proliferation Assays (resazurin). It counts as cell-based. The following applies: Mus musculus, BaF3. On the procedure: Ba/F3 KIT Mutant Cell Line Transduction and Expansion
Several different KIT cDNA encoding various primary and secondary mutations were cloned into a pLV(Exp]-CMV>(cDNA):IRES:puro vector. These vectors were constructed and packaged by VectorBuilder.
Exponentially grown Ba/F3 cells (1×10^6 cells in 1 ml medium) were infected with 60 μl of viral suspension in a 6-well plate in the presence of mIL-3 (10 ng/ml) and polybrene (7.5 μg/ml) (Vector Builder) and incubated for 16 h. After 16 h, the cells were centrifuged, and viral supernatant was discarded. The cells were then re-suspended in fresh medium and allowed to recover for another day. After 72 h post infection, the cells were seeded with complete medium with mIL-3 and with 1 μg/ml puromycin added to medium for selection. After 48 h, cells without viral infection die, whereas successfully transduced cells were collected and changed to fresh medium with 5 ng/ml of IL-3. After a week or two with gradual withdrawal of mIL3 the cells that can continue to proliferate in the absence of mIL3 were exponentially expanded and were frozen down for banking.
Ba/F3 mutant KIT Cell Proliferation Assays
A serial dilution of test compound was dispensed into a 384-well black clear bottom plate (Corning, Corning, NY). Six hundred and twenty-five cells were added per well in 50 μL complete growth medium. Plates were incubated for 68 h at 37° C., 5% CO2, 95% humidity. At the end of the incubation period 10 μL of a 440 μM solution of resazurin (Sigma, St. Louis, MO) in PBS was added to each well and incubated for an additional 5 h at 37° C., 5% CO2, 95% humidity. Plates were read on a Synergy2 reader (Biotek, Winooski, VT) using an excitation of 540 nm and an emission of 600 nm. Data was analyzed using Prism software (Graphpad, San Diego, CA) to calculate IC50 values.

Where [3] appears, read: Ba/F3 KIT exon11del-V654A mutant cell proliferation, read-out: exon11del-V654A IC50.
Setting [4] is: Ba/F3 KIT AYdup-V654A mutant cell proliferation, read-out: AYdup-V654A IC50.
The mark [5] stands for this setting: Ba/F3 KIT exon11del-Y823D mutant cell proliferation, read-out: exon11del-Y823D IC50.

Chain of c-KIT kinase (uKIT) (P10721 other isoform, or with tags, fused parts or gaps): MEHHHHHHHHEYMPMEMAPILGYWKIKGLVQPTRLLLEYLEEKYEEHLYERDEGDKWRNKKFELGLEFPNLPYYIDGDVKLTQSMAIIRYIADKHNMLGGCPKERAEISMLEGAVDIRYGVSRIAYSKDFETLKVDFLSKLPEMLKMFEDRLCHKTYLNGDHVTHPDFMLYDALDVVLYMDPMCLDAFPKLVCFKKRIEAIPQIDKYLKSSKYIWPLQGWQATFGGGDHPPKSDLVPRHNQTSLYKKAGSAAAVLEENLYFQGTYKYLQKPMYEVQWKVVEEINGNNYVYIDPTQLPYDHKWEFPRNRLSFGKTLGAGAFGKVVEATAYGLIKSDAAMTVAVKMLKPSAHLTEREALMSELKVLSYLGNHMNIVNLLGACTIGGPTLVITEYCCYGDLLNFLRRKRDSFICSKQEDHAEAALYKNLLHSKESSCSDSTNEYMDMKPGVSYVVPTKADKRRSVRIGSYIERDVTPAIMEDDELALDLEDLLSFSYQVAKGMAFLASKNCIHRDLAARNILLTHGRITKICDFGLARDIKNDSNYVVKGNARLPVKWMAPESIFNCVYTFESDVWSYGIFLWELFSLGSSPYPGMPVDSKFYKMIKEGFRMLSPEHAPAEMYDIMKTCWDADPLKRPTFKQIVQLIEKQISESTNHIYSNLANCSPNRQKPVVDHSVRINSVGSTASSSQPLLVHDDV

In the case of `CN(C)CCOc1cc(F)c2c(Nc3ccc(NC(=O)NCCC(C)(C)C#N)cc3)ncnc2c1` [Example 80], the IC50 in assay [1] and in assay [2] (setting [3]) was greater than 1000 nM throughout.
With `COCCOc1cc(F)c2c(Nc3ccc(NC(=O)CCC(=O)NC(C)C)cc3)ncnc2c1` [Example 87], the IC50 lay within 10 to 100 nM in assay [1], 100 to 1000 nM in assay [2] (setting [4]) and 100 to 1000 nM in assay [2] (setting [3]).
`COCCOc1cc(F)c2c(Nc3ccc(NC(=O)C(=O)NC(C)(C)C)cc3)ncnc2c1` [Example 134]: the half-inhibitory concentration (IC50) is greater than 1000 nM in assay [1], greater than 1000 nM in assay [2] (setting [4]), 100 to 1000 nM in assay [2] (setting [3]) and greater than 1000 nM in assay [2] (setting [5]).
Consider `COCCCc1ccc2c(Nc3ccc(NC(=O)CC(=O)NCC(C)(C)C)cc3)cnnc2c1` [Example 193], for which the concentration for half-maximal inhibition (IC50) in assay [1] was 10 to 100 nM.
`COCCOc1cc(F)c2c(Nc3ccc(NC(=O)CC(=O)N4[C@@H](C)COC[C@@H]4C)cc3)ncnc2c1` [Example 199]: the half-maximal inhibitory concentration (IC50) was 100 to 1000 nM in assay [1], greater than 1000 nM in assay [2] (setting [4]), greater than 1000 nM in assay [2] (setting [3]) and greater than 1000 nM in assay [2] (setting [5]).
Regarding `COCCOc1ccc2ncnc(Nc3ccc(NC(=O)NCCC(C)(C)F)cc3)c2c1F` [Example 200], the IC50 in assay [1] was 100 to 1000 nM; in assay [2] (setting [4]), greater than 1000 nM; in assay [2] (setting [3]) it was greater than 1000 nM; in assay [2] (setting [5]), greater than 1000 nM.
Regarding `COCCOc1ccc2ncnc(Nc3ccc(NC(=O)CC(=O)NC4CCCC4)cc3)c2c1F` [Example 201], the IC50 in assay [1] was 100 to 1000 nM; in assay [2] (setting [4]) it was 100 to 1000 nM; in assay [2] (setting [3]), greater than 1000 nM; in assay [2] (setting [5]), greater than 1000 nM.
On to `COc1cc(F)c2c(Nc3ccc(NC(=O)NCCC(C)(C)OC)cc3)ncnc2c1` [Example 202], for which the half-inhibitory concentration (IC50) in assay [1], in assay [2] (setting [4]), in assay [2] (setting [3]) and in assay [2] (setting [5]) was 10 to 100 nM in each case.
Regarding `COc1cc(F)c2c(Nc3ccc(NC(=O)NCCC(C)(C)F)cc3)ncnc2c1` [Example 203], the concentration for half-maximal inhibition (IC50) was no more than 10 nM in assay [1], 10 to 100 nM in assay [2] (setting [4]), 10 to 100 nM in assay [2] (setting [3]) and 10 to 100 nM in assay [2] (setting [5]).
Consider `COCCOc1cc(OC)c2c(Nc3ccc(NC(=O)CC(=O)NCC(C)(C)C)cc3)ncnc2c1` [Example 204], for which the concentration for half-maximal inhibition (IC50) in assay [1] was in the range of 10 to 100 nM; in assay [2] (setting [4]) it was 10 to 100 nM; in assay [2] (setting [3]), 100 to 1000 nM; in assay [2] (setting [5]), 10 to 100 nM.
With `COCCOc1ccc2c(Nc3ccc(NC(=O)CC(=O)NCC(C)(C)C)cn3)ccnc2c1` [Example 205], the 50% inhibitory concentration (IC50) in assay [1], in assay [2] (setting [4]), in assay [2] (setting [3]) and in assay [2] (setting [5]) was greater than 1000 nM each time.
For `COc1cc2ncnc(Nc3ccc(NC(=O)CC(=O)NCC(C)(C)C)cc3)c2cc1OCCCN1CCOCC1` [Example 206], the IC50 in assay [1] is 100 to 1000 nM; in assay [2] (setting [4]), 100 to 1000 nM; in assay [2] (setting [3]), greater than 1000 nM; in assay [2] (setting [5]), greater than 1000 nM.
For the compound `COCCOc1ccc2ncnc(Nc3ccc(NC(=O)CC(=O)NC4CCC4)cc3)c2c1F` [Example 207], the half-inhibitory concentration (IC50) in assay [1] was 100 to 1000 nM; in assay [2] (setting [4]), 100 to 1000 nM; in assay [2] (setting [3]), greater than 1000 nM; in assay [2] (setting [5]) it was greater than 1000 nM.
In the case of `COCCOc1ccc2ncnc(Nc3ccc(NC(=O)CC(=O)NC(C)(C)C)cc3)c2c1F` [Example 208], the IC50 in assay [1], in assay [2] (setting [4]), in assay [2] (setting [3]) and in assay [2] (setting [5]) was greater than 1000 nM each time.
For the compound `COc1cc2ncnc(Nc3ccc(NC(=O)NCCC(C)(C)F)cc3)c2cc1OC` [Example 209], the IC50 in assay [1] was 10 to 100 nM; in assay [2] (setting [4]) it was greater than 1000 nM; in assay [2] (setting [3]), 100 to 1000 nM; in assay [2] (setting [5]), greater than 1000 nM.
In the case of `COc1cc2ncnc(Nc3ccc(NC(=O)NCCC(C)(C)OC)cc3)c2cc1OC` [Example 210], the IC50 in assay [1] was 10 to 100 nM; in assay [2] (setting [4]) it was greater than 1000 nM; in assay [2] (setting [3]) it was greater than 1000 nM; in assay [2] (setting [5]), greater than 1000 nM.
As for `COc1cc(F)c2c(Nc3ccc(NC(=O)CC(=O)NCC(C)(C)C)cc3)ncnc2c1` [Example 211], the concentration for half-maximal inhibition (IC50) in assay [1], in assay [2] (setting [4]), in assay [2] (setting [3]) and in assay [2] (setting [5]) was 10 to 100 nM in each case.
With `COCCOc1cc(F)c2c(Nc3ccc(NC(=O)CC(=O)N4[C@H](C)COC[C@@H]4C)cc3)ncnc2c1` [Example 212], the figures for the IC50 in assay [2] (setting [4]), in assay [2] (setting [3]) and in assay [2] (setting [5]) were 100 to 1000 nM, greater than 1000 nM and greater than 1000 nM, respectively.
As for `COc1cc2ncnc(Nc3ccc(NC(=O)CC(=O)NCC(C)(C)C)cc3)c2cc1OC` [Example 213], the half-inhibitory concentration (IC50) in assay [1] was 10 to 100 nM; in assay [2] (setting [4]) it was 100 to 1000 nM; in assay [2] (setting [3]) it was greater than 1000 nM; in assay [2] (setting [5]) it was greater than 1000 nM.
As for `COCCOc1cc(F)c2c(Nc3ccc(NC(=O)CC(=O)N4CCC[C@@H]4C(C)C)cc3)ncnc2c1` [Example 214], the IC50 in assay [1], in assay [2] (setting [4]), in assay [2] (setting [3]) and in assay [2] (setting [5]) was 10 to 100 nM each time.
Turning to `COCCOc1ccc2ncnc(Nc3ccc(NC(=O)NCCC(C)(C)OC)cc3)c2c1F` [Example 215], the IC50 was 10 to 100 nM in assay [1], 100 to 1000 nM in assay [2] (setting [4]), 100 to 1000 nM in assay [2] (setting [3]) and 100 to 1000 nM in assay [2] (setting [5]).
Take `COCCOc1ccc2ncnc(Nc3ccc(NC(=O)NCCC(C)(C)C#N)cc3)c2c1F` [Example 216]: the IC50 in assay [1] is 10 to 100 nM; in assay [2] (setting [4]), 100 to 1000 nM; in assay [2] (setting [3]), 100 to 1000 nM; in assay [2] (setting [5]), 100 to 1000 nM.
In the case of `COCCOc1ccc2ncnc(Nc3ccc(NC(=O)CC(=O)NCC(C)(C)C)cc3)c2c1F` [Example 217], the IC50 is 100 to 1000 nM in assay [1], 100 to 1000 nM in assay [2] (setting [4]), greater than 1000 nM in assay [2] (setting [3]) and greater than 1000 nM in assay [2] (setting [5]).
Regarding `COc1cc2ncnc(Nc3ccc(NC(=O)NCCC(C)(C)C#N)cc3)c2cc1OC` [Example 218], the IC50 in assay [2] (setting [4]) was 100 to 1000 nM; in assay [2] (setting [3]) it was greater than 1000 nM; in assay [2] (setting [5]) it was greater than 1000 nM.
For the compound `COc1cc(F)c2c(Nc3ccc(NC(=O)NCCC(C)(C)C#N)cc3)ncnc2c1` [Example 219], the IC50 in assay [1], in assay [2] (setting [4]), in assay [2] (setting [3]) and in assay [2] (setting [5]) was 10 to 100 nM each time.
In the case of `COCCOc1ccc2c(Nc3ccc(NC(=O)NCCC(C)(C)F)cc3)ncnc2c1` [Example 220], the half-maximal inhibitory concentration (IC50) was no more than 10 nM in assay [1], 100 to 1000 nM in assay [2] (setting [4]), 100 to 1000 nM in assay [2] (setting [3]) and 10 to 100 nM in assay [2] (setting [5]).
Regarding `COCCOc1cc2ncnc(Nc3ccc(NC(=O)NCCC(C)(C)F)cc3)c2cc1OCCOC` [Example 222], the half-maximal inhibitory concentration (IC50) in assay [1] lay in the range of 10 to 100 nM.
The same measure, in the same setting: the value for `COCCOc1ccc2c(Nc3ccc(NC(=O)CC(=O)NCC(C)(C)C)cc3)ccnc2c1` [Example 223] was 100 to 1000 nM; that for `CC(C)(F)CCNC(=O)Nc1ccc(Nc2ncnc3cc(OCC(=O)O)cc(F)c23)cc1` [Example 224] was 10 to 100 nM; that for `COCCOc1ccc2c(Nc3ccc(NC(=O)NCCC(C)(C)OC)cc3)ncnc2c1` [Example 225] was no more than 10 nM.
Same read-out and setting: under `COCCOc1ccc2c(Nc3ccc(NC(=O)NCCC(C)(C)C#N)cn3)ncnc2c1` [Example 226] stands 100 to 1000 nM; under `COCCOc1ccc2c(Nc3ccc(NC(=O)NCCC(C)(C)F)cn3)ncnc2c1` [Example 227], 100 to 1000 nM; under `COCCOc1ccc2c(Nc3ccc(NC(=O)NCCC(C)(C)OC)cn3)ncnc2c1` [Example 228], 10 to 100 nM.
On the same count and under the same terms, under `COCCOc1ccc2c(Nc3ccc(NC(=O)CC(=O)NCC(C)(C)C)cn3)ncnc2c1` [Example 229] stands 100 to 1000 nM.

The record behind these values is US20240116877A1, “KIT KINASE INHIBITORS AND METHODS OF USE THEREOF” (Deciphera Pharmaceuticals, LLC, priority 2021, published 2024).
